The target in data set [1] is Ephrin type-A receptor 7 (Homo sapiens) (UniProt Q15375). The experiment in a line: Inhibition of recombinant human EPHA7 (613 to 909 residues) at 1 uM using KTFCGTPEYLAPEVRREPRILSEEEQEMFRDFDYIADWC as substrate after 40 mins in presence of [gamma-33P]ATP by scintillation counting method.
Data set [2] deals with Tyrosine-protein kinase CSK (Homo sapiens) (UniProt P41240). The experiment in a line: Inhibition of recombinant full-length human CSK at 1 uM using poly(Glu,Tyr) 4:1 as substrate after 40 mins in presence of [gamma-33P]ATP by scintillation counting method.
The target in data set [3] is Serine/threonine-protein kinase Sgk3 (Homo sapiens) (UniProt Q96BR1). Kind of data set: Inhibition of recombinant human SGK3 (119 to end residues) at 1 uM using GRPRTSSFAEGKK as substrate after 40 mins in presence of [gamma-33P]ATP by scintillation counting method.
The next data set deals with Mus musculus. The experiment in a line: Clearance in mouse at 2 mg/kg, iv or 10 mg/kg, po. Format: ADME, organism-based. Conditions: in vivo.
Data set [4] deals with Protein kinase C eta type (Homo sapiens) (UniProt P24723). The experiment in a line: Inhibition of recombinant human PKCeta (2 to end residues) at 1 uM using ERMRPRKRQGSVRRRV as substrate after 40 mins in presence of [gamma-33P]ATP by scintillation counting method.
Protein kinase C eta type (Homo sapiens), sequence (P24723 whole entry): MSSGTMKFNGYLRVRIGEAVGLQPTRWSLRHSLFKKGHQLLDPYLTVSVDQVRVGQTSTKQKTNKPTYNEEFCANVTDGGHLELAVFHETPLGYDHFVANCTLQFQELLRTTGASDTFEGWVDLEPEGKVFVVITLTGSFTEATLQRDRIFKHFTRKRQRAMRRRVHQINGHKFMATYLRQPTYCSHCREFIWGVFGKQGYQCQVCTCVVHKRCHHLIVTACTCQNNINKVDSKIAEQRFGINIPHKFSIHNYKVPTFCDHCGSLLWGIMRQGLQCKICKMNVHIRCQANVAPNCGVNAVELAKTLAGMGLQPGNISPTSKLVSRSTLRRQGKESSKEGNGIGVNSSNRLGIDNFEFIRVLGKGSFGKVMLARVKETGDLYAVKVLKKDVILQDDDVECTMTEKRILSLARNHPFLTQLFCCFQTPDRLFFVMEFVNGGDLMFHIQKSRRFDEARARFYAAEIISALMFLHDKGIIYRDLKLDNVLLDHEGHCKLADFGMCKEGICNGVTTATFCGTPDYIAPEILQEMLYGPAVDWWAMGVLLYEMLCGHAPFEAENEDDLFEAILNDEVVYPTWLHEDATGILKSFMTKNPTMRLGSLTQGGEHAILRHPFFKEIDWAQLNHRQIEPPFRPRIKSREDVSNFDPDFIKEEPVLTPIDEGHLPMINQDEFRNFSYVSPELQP
Data set [5] has as its target CDK7/Cyclin H/MNAT1 (Homo sapiens) (UniProt P51946+P50613+P51948). Kind of data set: Inhibition of recombinant full-length human CDK7/CyclinH/MAT1 at 1 uM using peptide as substrate after 40 mins in presence of [gamma-33P]ATP by scintillation counting method. The class given is protein-complex assay.
Data set [6] has as its target PI3K p110 alpha/p85 alpha (Mus musculus) (UniProt P26450+P42337). Kind of data set: Inhibition of recombinant full-length mouse p110a E542K mutant/p85a at 1 uM using phosphatidylinositol 4,5-bisphosphate as substrate after 40 mins in presence of [gamma-33P]ATP by scintillation counting method. The class given is protein-complex assay.
Data set [7] has as its target Tyrosine-protein kinase Mer (Homo sapiens) (UniProt Q12866). Kind of data set: Inhibition of recombinant human MER (557 to 882 residues) at 1 uM using GGMEDIYFEFMGGKKK as substrate after 40 mins in presence of [gamma-33P]ATP by scintillation counting method.
In data set [8] the target is MAPK/MAK/MRK overlapping kinase (Homo sapiens) (UniProt Q9UQ07). Kind of data set: Inhibition of recombinant human MOK (1 to 343 residues) at 1 uM using RSRSRSRSRSRSRSR as substrate after 40 mins in presence of [gamma-33P]ATP by scintillation counting method.
Data set [9] deals with Phosphorylase b kinase gamma catalytic chain, liver/testis isoform (Homo sapiens) (UniProt P15735). Kind of data set: Inhibition of recombinant human PhKgamma2 (1 to 301 residues) at 1 uM using KKLNRTLSFAEPG as substrate after 40 mins in presence of [gamma-33P]ATP by scintillation counting method.
Data set [10] has as its target Protein kinase C beta type (Homo sapiens) (UniProt P05771). The experiment in a line: Inhibition of recombinant human PKCbeta2 (2 to end residues) at 1 uM using histone H1 as substrate after 40 mins in presence of [gamma-33P]ATP by scintillation counting method.
For data set [11], the system named is Fibroblast growth factor receptor 1 (Homo sapiens), P11362 [V561M]. Kind of data set: Inhibition of recombinant human FGFR1 V561M mutant (456 to 765 residues) at 1 uM using GGEEEEYFELVKKKK as substrate after 40 mins in presence of [gamma-33P]ATP by scintillation counting method.
Data set [12] deals with Serine/threonine-protein kinase SIK1 (Homo sapiens) (UniProt P57059). The experiment in a line: Inhibition of recombinant human SIK (1 to 281 residues) at 1 uM using AMARAASAAALARRR as substrate after 40 mins in presence of [gamma-33P]ATP by scintillation counting method.
The target in data set [13] is eIF-2-alpha kinase GCN2 (Homo sapiens) (UniProt Q9P2K8). Kind of data set: Inhibition of recombinant full-length human GCN2 at 1 uM using RSRSRSRSRSRSRSR as substrate after 40 mins in presence of [gamma-33P]ATP by scintillation counting method.
The target in data set [14] is Tyrosine-protein kinase receptor TYRO3 (Homo sapiens) (UniProt Q06418). Kind of data set: Inhibition of recombinant human Rse (451 to end residues) at 1 uM using KVEKIGEGTYGVVYK as substrate after 40 mins in presence of [gamma-33P]ATP by scintillation counting method.
Tyrosine-protein kinase receptor TYRO3 (Homo sapiens), sequence (Q06418 whole entry): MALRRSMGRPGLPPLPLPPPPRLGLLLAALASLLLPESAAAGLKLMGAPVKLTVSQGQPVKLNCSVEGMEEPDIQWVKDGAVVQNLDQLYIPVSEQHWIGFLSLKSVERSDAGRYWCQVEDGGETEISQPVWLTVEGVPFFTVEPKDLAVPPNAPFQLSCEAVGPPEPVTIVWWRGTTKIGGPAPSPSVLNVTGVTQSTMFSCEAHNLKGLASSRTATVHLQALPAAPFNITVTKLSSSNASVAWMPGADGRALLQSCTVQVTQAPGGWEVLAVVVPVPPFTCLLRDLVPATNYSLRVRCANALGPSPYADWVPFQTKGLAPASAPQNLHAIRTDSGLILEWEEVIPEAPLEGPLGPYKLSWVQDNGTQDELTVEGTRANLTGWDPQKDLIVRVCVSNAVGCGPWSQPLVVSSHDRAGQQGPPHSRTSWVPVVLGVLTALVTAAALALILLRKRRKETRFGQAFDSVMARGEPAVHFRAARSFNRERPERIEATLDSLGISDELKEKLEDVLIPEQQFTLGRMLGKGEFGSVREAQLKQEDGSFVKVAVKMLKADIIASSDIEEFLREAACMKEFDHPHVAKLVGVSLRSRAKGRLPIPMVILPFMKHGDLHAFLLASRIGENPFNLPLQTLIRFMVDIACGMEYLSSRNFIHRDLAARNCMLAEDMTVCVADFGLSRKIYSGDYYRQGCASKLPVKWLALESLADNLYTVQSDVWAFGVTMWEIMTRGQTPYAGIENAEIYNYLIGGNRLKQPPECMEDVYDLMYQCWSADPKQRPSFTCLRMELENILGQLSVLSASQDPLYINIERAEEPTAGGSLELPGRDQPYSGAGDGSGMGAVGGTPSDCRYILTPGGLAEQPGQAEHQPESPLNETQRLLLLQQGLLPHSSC
The target in data set [15] is Serine/threonine-protein kinase 32A (Homo sapiens) (UniProt Q8WU08). The experiment in a line: Inhibition of recombinant full-length human STK32A at 1 uM using casein as substrate after 120 mins in presence of [gamma-33P]ATP by scintillation counting method.
The target in data set [16] is Insulin receptor-related protein (Homo sapiens) (UniProt P14616). Kind of data set: Inhibition of recombinant human IRR (943 to 1266 residues) at 1 uM using myelin basic protein as substrate after 40 mins in presence of [gamma-33P]ATP by scintillation counting method.
Insulin receptor-related protein (Homo sapiens), sequence (P14616 27-742 limits assumed): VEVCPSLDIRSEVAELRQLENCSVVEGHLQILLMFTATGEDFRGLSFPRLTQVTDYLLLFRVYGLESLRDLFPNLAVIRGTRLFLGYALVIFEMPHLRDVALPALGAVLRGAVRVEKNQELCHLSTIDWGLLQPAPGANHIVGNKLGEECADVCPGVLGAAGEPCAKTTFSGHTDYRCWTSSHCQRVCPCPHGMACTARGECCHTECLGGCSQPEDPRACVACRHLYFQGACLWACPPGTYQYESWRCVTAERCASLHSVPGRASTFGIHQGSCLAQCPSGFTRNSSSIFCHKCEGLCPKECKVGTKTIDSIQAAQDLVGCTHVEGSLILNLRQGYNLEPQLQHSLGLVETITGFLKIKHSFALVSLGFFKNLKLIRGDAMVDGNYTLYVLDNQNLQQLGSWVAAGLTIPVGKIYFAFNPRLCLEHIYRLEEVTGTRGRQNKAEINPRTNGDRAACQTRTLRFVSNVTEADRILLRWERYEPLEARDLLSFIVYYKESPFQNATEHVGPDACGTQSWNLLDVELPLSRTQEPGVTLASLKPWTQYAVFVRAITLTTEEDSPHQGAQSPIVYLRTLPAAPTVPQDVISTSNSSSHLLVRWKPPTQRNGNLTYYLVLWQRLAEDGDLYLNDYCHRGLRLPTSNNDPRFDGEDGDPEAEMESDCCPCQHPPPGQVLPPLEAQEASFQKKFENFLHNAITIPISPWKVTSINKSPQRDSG
Insulin receptor-related protein (Homo sapiens), sequence (P14616 747-1297 limits assumed): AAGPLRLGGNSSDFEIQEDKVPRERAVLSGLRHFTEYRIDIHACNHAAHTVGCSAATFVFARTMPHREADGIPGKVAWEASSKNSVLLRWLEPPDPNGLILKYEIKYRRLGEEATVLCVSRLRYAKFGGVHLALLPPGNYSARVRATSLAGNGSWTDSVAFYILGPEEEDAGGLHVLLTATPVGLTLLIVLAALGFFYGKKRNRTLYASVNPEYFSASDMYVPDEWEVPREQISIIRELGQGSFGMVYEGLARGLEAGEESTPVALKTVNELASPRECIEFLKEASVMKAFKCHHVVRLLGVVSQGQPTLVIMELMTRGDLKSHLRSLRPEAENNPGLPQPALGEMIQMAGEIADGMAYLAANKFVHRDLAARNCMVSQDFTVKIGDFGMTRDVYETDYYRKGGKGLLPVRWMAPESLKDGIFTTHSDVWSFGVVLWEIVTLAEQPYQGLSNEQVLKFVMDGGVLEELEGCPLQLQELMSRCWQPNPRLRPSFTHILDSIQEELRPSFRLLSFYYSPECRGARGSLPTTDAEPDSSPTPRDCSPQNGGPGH
In data set [17] the target is Focal adhesion kinase 1 (Homo sapiens) (UniProt Q05397). Kind of data set: Inhibition of recombinant human FAK (411 to 686 residues) at 1 uM using EEEEYEEEEEEYYIIEEEEEEYEEEEEEYYEEEEEEKKKK as substrate after 40 mins in presence of [gamma-33P]ATP by scintillation counting method.
Data set [18] deals with Fibroblast growth factor receptor 3 (Homo sapiens) (UniProt P22607). Kind of data set: Inhibition of recombinant human FGFR3 (447 to 761 residues) at 1 uM using poly(Glu,Tyr) 4:1 as substrate after 40 mins in presence of [gamma-33P]ATP by scintillation counting method.
Data set [19] concerns the target Vascular endothelial growth factor receptor 1 (Homo sapiens) (UniProt P17948). Kind of data set: Inhibition of recombinant human Flt1 (783 to end residues) at 1 uM using KKKSPGEYVNIEFG as substrate after 40 mins in presence of [gamma-33P]ATP by scintillation counting method.
Data set [20] addresses Serine/threonine-protein kinase Chk2 (Homo sapiens) (UniProt O96017). Kind of data set: Inhibition of recombinant human CHK2 (5 to end residues) at 1 uM using KKKVSRSGLYRSPSMPENLNRPR as substrate after 40 mins in presence of [gamma-33P]ATP by scintillation counting method.
The test system of data set [21] is Receptor-type tyrosine-protein kinase FLT3 (Homo sapiens), P36888 [D835Y]. Kind of data set: Inhibition of recombinant human Flt3 D835Y mutant (564 to end residues) at 1 uM using EAIYAAPFAKKK as substrate after 40 mins in presence of [gamma-33P]ATP by scintillation counting method.
Data set [22] addresses Dual specificity protein kinase CLK3 (Homo sapiens) (UniProt P49761). Kind of data set: Inhibition of recombinant full-length human CLK3 at 1 uM using ERMRPRKRQGSVRRRV as substrate after 40 mins in presence of [gamma-33P]ATP by scintillation counting method.

Tyrosine-protein kinase Mer (Homo sapiens), sequence (Q12866 whole entry, the tested form may be a part): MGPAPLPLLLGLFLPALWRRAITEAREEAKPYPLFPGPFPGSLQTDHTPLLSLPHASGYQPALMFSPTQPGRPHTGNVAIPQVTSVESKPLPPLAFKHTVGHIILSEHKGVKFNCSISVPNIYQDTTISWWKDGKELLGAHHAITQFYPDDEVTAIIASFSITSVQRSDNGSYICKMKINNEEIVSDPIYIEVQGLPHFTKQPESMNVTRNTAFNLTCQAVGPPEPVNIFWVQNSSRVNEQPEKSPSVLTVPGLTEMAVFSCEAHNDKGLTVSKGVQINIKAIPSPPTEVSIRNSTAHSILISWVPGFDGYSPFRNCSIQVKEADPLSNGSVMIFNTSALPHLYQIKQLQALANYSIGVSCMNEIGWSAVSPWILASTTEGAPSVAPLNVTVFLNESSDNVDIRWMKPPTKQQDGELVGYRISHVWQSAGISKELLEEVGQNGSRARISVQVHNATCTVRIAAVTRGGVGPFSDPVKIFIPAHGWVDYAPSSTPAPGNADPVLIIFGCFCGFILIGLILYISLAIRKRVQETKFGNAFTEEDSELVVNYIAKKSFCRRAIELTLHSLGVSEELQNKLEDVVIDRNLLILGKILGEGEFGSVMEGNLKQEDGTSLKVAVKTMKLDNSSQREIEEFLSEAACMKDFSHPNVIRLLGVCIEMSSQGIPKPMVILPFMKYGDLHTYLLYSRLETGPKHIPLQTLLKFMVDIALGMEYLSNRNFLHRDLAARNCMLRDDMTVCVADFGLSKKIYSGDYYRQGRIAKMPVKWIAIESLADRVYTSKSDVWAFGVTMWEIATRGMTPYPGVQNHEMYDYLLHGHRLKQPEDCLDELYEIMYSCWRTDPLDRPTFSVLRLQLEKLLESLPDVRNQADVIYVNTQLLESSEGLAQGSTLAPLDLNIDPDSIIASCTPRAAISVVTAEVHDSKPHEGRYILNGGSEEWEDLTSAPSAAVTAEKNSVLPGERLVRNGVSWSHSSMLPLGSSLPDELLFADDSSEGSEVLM
Ephrin type-A receptor 7 (Homo sapiens), sequence (Q15375 28-998 limits assumed): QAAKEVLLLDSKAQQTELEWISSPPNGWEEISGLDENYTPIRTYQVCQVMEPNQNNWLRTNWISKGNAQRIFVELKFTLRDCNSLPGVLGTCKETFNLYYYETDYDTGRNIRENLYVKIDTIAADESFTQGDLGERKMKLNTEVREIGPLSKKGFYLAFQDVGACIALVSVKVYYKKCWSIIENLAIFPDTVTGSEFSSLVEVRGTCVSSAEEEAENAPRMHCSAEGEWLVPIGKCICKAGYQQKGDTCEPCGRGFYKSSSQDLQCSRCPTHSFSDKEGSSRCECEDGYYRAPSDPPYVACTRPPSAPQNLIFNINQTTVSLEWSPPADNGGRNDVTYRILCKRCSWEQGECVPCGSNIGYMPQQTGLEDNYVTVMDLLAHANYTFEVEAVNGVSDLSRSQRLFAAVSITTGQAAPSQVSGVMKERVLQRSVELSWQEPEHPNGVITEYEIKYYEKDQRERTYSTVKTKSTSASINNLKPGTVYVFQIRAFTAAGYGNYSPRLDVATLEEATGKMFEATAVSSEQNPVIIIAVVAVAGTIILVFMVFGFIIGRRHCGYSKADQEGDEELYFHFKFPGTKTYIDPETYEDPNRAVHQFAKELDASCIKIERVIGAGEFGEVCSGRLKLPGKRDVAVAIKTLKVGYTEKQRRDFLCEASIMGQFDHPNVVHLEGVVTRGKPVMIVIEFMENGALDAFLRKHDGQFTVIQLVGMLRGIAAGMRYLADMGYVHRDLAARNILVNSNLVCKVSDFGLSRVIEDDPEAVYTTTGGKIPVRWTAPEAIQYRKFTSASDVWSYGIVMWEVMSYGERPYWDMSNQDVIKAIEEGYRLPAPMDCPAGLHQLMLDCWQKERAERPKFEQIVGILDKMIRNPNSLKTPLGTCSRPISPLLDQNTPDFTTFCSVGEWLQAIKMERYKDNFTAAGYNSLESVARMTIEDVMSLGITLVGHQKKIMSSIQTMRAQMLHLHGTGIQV

By inhibition is commonly meant the drop in the measured response relative to a control, in per cent. With `CS(=O)(=O)c1ccc(-n2nc(-c3cnc4[nH]ccc4c3)c3c(N)ncnc32)cc1`, the inhibition was 0% in data set [1]; 3% in data set [2]; 12% in data set [3]; 6% in data set [4]; 7% in data set [5]; 11% in [6]. In addition, the inhibition in data set [7] was -3%; in data set [8], 59%; in data set [9] it was 16%; in [10], -4%; in data set [11] it was 12%; in data set [12], 35%. In addition, the inhibition in data set [13] was 2%; in data set [14], 4%; in data set [15] it was 6%; in [16], -7%; in data set [17] it was 3%; in data set [18] it was 5%. In addition, the inhibition was 59% in [19], -3% in [20], 37% in data set [21] and -1% in [22]. The CL in the data set with Mus musculus worked out at 22.2 mL/min/kg.

For the origin of these results see ChEMBL document CHEMBL4190187, “Discovery of pyrazolopyrimidine derivatives as novel inhibitors of ataxia telangiectasia and rad3 related protein (ATR)” (Bioorg Med Chem Lett, 2017).
